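Cells were grown in 96-well plates and exposed to each compound for 48 hours at five concentrations; endpoints were interpolated linearly between bracketing concentrations, or set to the highest concentration if not reached. Here, GI50 denotes the concentration required for 50% inhibition of growth.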 The source made the active and inactive calls. No stated cut-off is given here; in the data, active = GI50 up to about 1.1 µM and inactive = higher.
Legend:
Test in all cases: inhibition of tumour cell growth, NCI panel, 48 h
A498 = system: A498
CAKI-1 = system: CAKI-1
COLO 205 = system: COLO 205
HCC 2998 = system: HCC 2998
HOP-62 = system: HOP-62
HOP-92 = system: HOP-92
K562 = system: K562
LOX IMVI = system: LOX IMVI
M14 = system: M14
MOLT-4 = system: MOLT-4
Malme-3M = system: Malme-3M
NCI-H226 = system: NCI-H226
OVCAR-5 = system: OVCAR-5
SK-MEL-5 = system: SK-MEL-5
SK-OV-3 = system: SK-OV-3
UO-31 = system: UO-31
HCT-116 = system: HCT-116
RXF 393 = system: RXF 393
SN12C = system: SN12C

Measured: GI50

CC1=CC(C)(C)N=C2SC(c3ccc(Cl)cc3)=NN12
inactive: A498 25.8 µM | CAKI-1 27.9 µM | COLO 205 41.1 µM | HCC 2998 25.6 µM | HOP-62 54.3 µM | HOP-92 27.4 µM | K562 21.4 µM | LOX IMVI 40.1 µM | M14 30.5 µM | MOLT-4 14.9 µM | Malme-3M 24.9 µM | NCI-H226 21.1 µM | OVCAR-5 17.6 µM | SK-MEL-5 15.5 µM | SK-OV-3 46.2 µM | UO-31 19.8 µM

COc1cccc(NC(=O)C(=O)C(C(=O)c2ccccc2F)C2OC(=O)c3ccccc32)c1 (stereo not given)
inactive: A498 72.6 µM | CAKI-1 52.5 µM | COLO 205 14.6 µM | HCC 2998 17.9 µM | HCT-116 20 µM | HOP-62 42.2 µM | HOP-92 > 100 µM | K562 30.9 µM | LOX IMVI 29.9 µM | M14 48 µM | MOLT-4 25.4 µM | NCI-H226 28 µM | OVCAR-5 59 µM | RXF 393 28.1 µM | SK-MEL-5 52 µM | SK-OV-3 35.2 µM | SN12C 18.7 µM | UO-31 34.4 µM

CCC(C)(C)NC1=C(NC(C)=O)C(=O)c2ccccc2C1=O
inactive: COLO 205 29.4 µM | HCC 2998 > 75 µM | HCT-116 17.7 µM | HOP-62 > 75 µM | K562 20.8 µM | LOX IMVI 29.8 µM | M14 > 75 µM | MOLT-4 13.9 µM | Malme-3M 28.7 µM | NCI-H226 > 75 µM | RXF 393 25 µM | SK-MEL-5 13.5 µM | SK-OV-3 > 75 µM | SN12C > 75 µM | UO-31 27.5 µM

CC1(C)OCC(C(O)C2OC(C)(C)OC2/C=N\O)O1 (stereo not given)
inactive: A498 > 100 µM | COLO 205 > 100 µM | HCC 2998 > 100 µM | HCT-116 > 100 µM | HOP-62 > 100 µM | HOP-92 > 100 µM | K562 > 100 µM | LOX IMVI > 100 µM | MOLT-4 > 100 µM | Malme-3M > 100 µM | OVCAR-5 > 100 µM | RXF 393 > 100 µM | SK-MEL-5 > 100 µM | SK-OV-3 > 100 µM | UO-31 > 100 µM

C[C@]12CCC(=O)C=C1CC[C@@H]1[C@@H]2[C@@H](O)C[C@@]2(C)[C@H]1CC[C@]2(O)C(=O)COC(=O)COCC(=O)O
inactive: A498 > 100 µM | CAKI-1 > 100 µM | COLO 205 > 100 µM | HCC 2998 > 100 µM | HCT-116 > 100 µM | HOP-62 > 100 µM | HOP-92 > 100 µM | K562 > 100 µM | LOX IMVI > 100 µM | M14 > 100 µM | MOLT-4 > 100 µM | Malme-3M > 100 µM | NCI-H226 > 100 µM | OVCAR-5 > 100 µM | SK-MEL-5 > 100 µM | SK-OV-3 > 100 µM | SN12C > 100 µM | UO-31 > 100 µM

CCOC(=O)CNc1nnnn1C1OC(CO)C(O)C1O (stereo not given)
inactive: A498 > 100 µM | CAKI-1 > 100 µM | COLO 205 > 100 µM | HCC 2998 > 100 µM | HCT-116 > 100 µM | HOP-62 > 100 µM | K562 > 100 µM | LOX IMVI > 100 µM | M14 > 100 µM | MOLT-4 > 100 µM | Malme-3M > 100 µM | NCI-H226 > 100 µM | OVCAR-5 > 100 µM | RXF 393 > 100 µM | SK-MEL-5 > 100 µM | SK-OV-3 > 100 µM | SN12C > 100 µM | UO-31 > 100 µM

— ChEMBL document CHEMBL1201862, “PubChem BioAssay data set” (2004)
